Measured values reported in PubChem BioAssay (NCI).
Values joined by “and” are separate entries in the source; they are usually repeats but may differ in a detail not shown here. Equal values may be shown once.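 Compound exposure: 48 hours, 5 concentrations, 96-well plates. GI50: concentration for 50% inhibition of growth. TGI: concentration producing complete growth inhibition.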

What was measured:
Experiment in all cases: DTP human tumour cell line panel, 48 h
OVCAR-8 ovarian = test system: OVCAR-8 ovarian
HS 578T breast = test system: HS 578T breast
IGROV1 ovarian = test system: IGROV1 ovarian
HCT-15 colon = test system: HCT-15 colon
A498 renal = test system: A498 renal
HCC-2998 colon = test system: HCC-2998 colon
KM12 colon = test system: KM12 colon
SNB-75 CNS = test system: SNB-75 CNS
MOLT-4 leukemia = test system: MOLT-4 leukemia
K-562 leukemia = test system: K-562 leukemia

SMILES	GI50 (OVCAR-8 ovarian)	TGI (OVCAR-8 ovarian)	GI50 (HS 578T breast) [µM]	TGI (HS 578T breast) [µM]	GI50 (IGROV1 ovarian) [µM]	TGI (IGROV1 ovarian) [µM]	GI50 (HCT-15 colon) [µM]	TGI (HCT-15 colon)	GI50 (A498 renal) [µM]	TGI (A498 renal) [µM]	GI50 (HCC-2998 colon)	TGI (HCC-2998 colon) [µM]	GI50 (KM12 colon) [µM]	TGI (KM12 colon) [µM]	GI50 (SNB-75 CNS) [µM]	TGI (SNB-75 CNS) [µM]	GI50 (MOLT-4 leukemia) [µM]	TGI (MOLT-4 leukemia) [µM]	GI50 (K-562 leukemia) [µM]	TGI (K-562 leukemia) [µM]
CSC(=S)NCc1cn(C)c2ccccc12	24.2 µM	90.6 µM	26.3	73.6	26.1	> 100	26.8	> 100 µM	12.8	29.2	25.1 µM	98.7	33.1	> 100	51.4	> 100				
C=C(CN1CCc2ccccc2C1)c1ccc(CCCC(=O)Nc2ccccc2N)cc1	18.4 µM	62.8 µM	14	43.4			28	> 100 µM	12.6	26.1	21.1 µM	43.2	11.1	27.2	3.33	27.7	1.28	15.3	0.505	25.3
COc1cc(C=NCC(=O)CSC(c2ccccc2)c2ccccc2)ccc1O	12.6 µM	25.1 µM	0.0464	5.52			13.8	30.8 µM			3.6 µM	16.5	11.9	26.3	13	25.9	9.05	31.8	4.73	23.3
BrCc1ccc2ccc3ccc(CBr)nc3c2n1		15.7 µM		71.3		10.8		4.18 µM		8.38		8.73		14.7		6.69		4.66		> 28.4
Cc1cc(C)c(-c2c(O)c(Br)c(-c3c(C)cc(C)c(Br)c3C)c(O)c2Br)c(C)c1Br	3.08 µM	10.4 µM	2.32	11.9	3.59	13.9	2.51	10.8 µM	4.67	20.5	2.67 µM	7.31	3.47	13.1	1.88	10.3	2.39	13	2.65	13.9
O=C(O)C(Cc1ccccc1)N1C(=O)/C(=C/C(Cl)=C/c2ccc([N+](=O)[O-])cc2)SC1=S (stereo not drawn)	3.13 µM	> 100 µM	4.37	> 100			1.92	4.58 µM	1.65	3.24	1.96 µM	3.5	2.06	4.35	1.96	5.37	3.14	> 100	3.01	> 100
CCNc1ccc2c(c1)C(=O)N(OS(C)(=O)=O)C2=O		> 100 µM		> 100				> 100 µM		> 100		> 100		> 100						
O=C(O)CCN1C(=S)CSC1=S		> 100 µM		> 100		> 100		> 100 µM		> 100				> 100		> 100		> 100		> 100
CCOC(=O)c1sc(NC(=O)COc2ccc(/C=C3\CCc4cc(OC)ccc4C3=O)cc2)nc1C	9.5 µM	34.7 µM	13.4	42.4	1.63	6.22	7.96	21.1 µM	13.2	30.1	1.47 µM	4.38	7.13	21.5	6.73	24.3	1.76	15.3	3.71	> 40.3
COc1cc(C2CC(c3ccc(Cl)cc3)=NN2C(C)=O)ccc1Oc1ccnc2cc(Cl)ccc12 (stereo not drawn)			2.94	> 100	> 100	> 100	> 100	> 100 µM	4.09	> 100	> 100 µM	> 100	> 100	> 100	1.66	7.76	> 100	> 100	> 100	> 100
C/C(=N\NC(=S)N1CCCC1)c1ccccn1	< 0.01 µM	12.4 µM	0.198	20.5	< 0.01	5.09	< 0.01	18.9 µM	0.0798	2.37	0.132 µM	13.9	< 0.01	15.2	0.273	13	< 0.0115	11.6	< 0.01	> 55.9
CN(C)CCN=c1nc2c(c(N)n1-c1ccccc1)c(=S)n(-c1ccccc1)c(=S)n2-c1ccccc1	4.76 µM	17.6 µM	1.98	9.51	8.09	23	1.17	3.73 µM	1.24	4.08	2.05 µM	5.33	3.8	14.2	2.3	7.27	2.79	> 21.6	3.6	
O=C(CC1(O)CCCCC1)OC1CCCC1		> 100 µM		> 100		> 100		> 100 µM		> 100				> 100		> 100				
CC(C)(C)OC(=O)NCCCCCCCCCCCCn1c2c(c3ccccc3c1=O)C(=O)c1ccccc1-2	49.8 µM	> 100 µM	11.9	63.1			> 100	> 100 µM	24.7	68.7	> 100 µM	> 100	> 100	> 100	8.56	26.3	49.4	> 100	46.9	> 100
COc1ccc(C(=O)Cn2c(C(=O)c3ccc(Cl)cc3)nc(-c3ccccc3)c2-c2ccccc2)cc1	> 100 µM	> 100 µM	44.1	> 100	67.1	> 100	> 100	> 100 µM	34.9	> 100	> 100 µM	> 100	> 100	> 100	85.8	> 100	> 100	> 100	> 100	> 100
C=C(CN1CCN(c2ccccn2)CC1)c1ccc(C(=O)Nc2ccccc2N)cc1	1.5 µM	> 50 µM	1.11	6.28	1.57	37.8	1.91	> 50 µM			0.664 µM	1.94	0.936	3.12	1.48	4.68			0.956	> 50

SMILES	GI50 (OVCAR-8 ovarian)	TGI (OVCAR-8 ovarian)	GI50 (HS 578T breast) [µM]	TGI (HS 578T breast) [µM]	GI50 (IGROV1 ovarian) [µM]	TGI (IGROV1 ovarian) [µM]	GI50 (HCT-15 colon) [µM]	TGI (HCT-15 colon)	GI50 (A498 renal) [µM]	TGI (A498 renal) [µM]	GI50 (HCC-2998 colon)	TGI (HCC-2998 colon) [µM]	GI50 (KM12 colon) [µM]	TGI (KM12 colon) [µM]	GI50 (SNB-75 CNS) [µM]	TGI (SNB-75 CNS) [µM]	GI50 (MOLT-4 leukemia) [µM]	TGI (MOLT-4 leukemia) [µM]	GI50 (K-562 leukemia) [µM]	TGI (K-562 leukemia) [µM]
CCOC1=C/C(=N\Nc2ccc([N+](=O)[O-])cc2)CCC1		> 100 µM		> 100		40.7		57.3 µM		> 100				> 100		73.1		> 100		> 100
COc1ccc(-c2cn3ccnc3c(-c3ccc(Cl)cc3)n2)cc1	15 µM	> 100 µM	3.83	48.2	7.46	> 100	3.16	> 100 µM	2.31	9.87			4.68	> 100	6.85	> 100	4.9	> 100	4.01	> 100
CC(C)C(Br)C(=O)NCC(=O)O (stereo not drawn)		> 100 µM		> 100		> 100		> 100 µM		> 100				> 100		> 100		> 100		> 100
CCCCS(=O)(=O)c1cc(Nc2ccc(O)c3c2C(=O)c2ccccc2C3=O)ccc1C	> 100 µM	> 100 µM	75.5	> 100	> 100	> 100	6.03	> 100 µM	> 100	> 100	> 100 µM	> 100	> 100	> 100	21.9	> 100	> 100	> 100		
CCCCC[C@H]1C/C=C2/C(=O)C=C[C@@H]2C/C=C\CCCC(=O)O1	0.149 µM	5.12 µM	0.403	16.8	0.209	1.43	0.0937	0.26 µM	0.193	0.878	0.096 µM	0.179			0.227	1.98	0.143	1.06	0.136	22
OC(Cc1cccc2ccccc12)CN1CCC(c2ccccc2)CC1 (stereo not drawn)		32 µM		32.4				30.4 µM				10.8		33.7		25.3				38.1
CN1C2C=CC(=O)C1C(C#N)C2 (stereo not drawn)	20.5 µM and 45.7 µM	44.8 µM and > 100 µM		> 100		> 100		73.5 µM and > 100 µM		> 100	32.4 µM and 74.9 µM	> 100		> 100				> 100		> 100
Cc1cc(C)nc(NC(=O)COc2ccc(Cl)cc2)c1		> 100 µM		> 100		> 100		> 100 µM		> 100				> 100		> 100		> 100		> 100
COC(=O)c1c(C(=O)O)c(-c2ccccc2)c(-c2ccccc2)c(-c2ccccc2)c1-c1ccccc1	> 100 µM	> 100 µM	> 100	> 100	> 100	> 100	> 100	> 100 µM					> 100	> 100	47.6	> 100	> 100	> 100	87	> 100
Cn1cc(-c2csc(-c3ccc(Cl)cc3)n2)c2cccnc21	22.8 µM	66.6 µM	12	34.4	22.3	> 100	12.2	29.3 µM			14.6 µM	28.8	13	27.6	20	54.3	12.4	38.6	12.9	38.3
COc1cc(N)c(Cl)cc1C(=O)N[C@@H]1CCN(CCCOc2ccc(F)cc2)C[C@@H]1OC	> 100 µM	> 100 µM	> 100	> 100	> 100	> 100	23.6	> 100 µM			35.2 µM	> 100	33.3	> 100	> 100	> 100	29.8	> 100	26.3	74.1
S=C(Nc1ccc(-c2nc3ccccc3s2)cc1)Nc1ccc(-c2nc3ccccc3s2)cc1	19.9 µM	49.4 µM	17.8	47.4	13	41.7	15.4	35.7 µM			17.4 µM	31.2	20.1	> 100	10.4	36.4	10.2	> 100	26.4	87.6
COc1ccc(N=c2nc3sc4cc(Cl)ccc4n3c(N)c2C#N)cc1	5.05 µM	> 100 µM	1.27		3.48	> 66.1	5.59	> 31.1 µM	2.64	7.05			2.47	6.89	3.4	> 100	7.74	> 76.5	22.5	> 100
NC(=S)c1cccc(C2Nc3ccccc3O2)c1 (stereo not drawn)		> 100 µM		> 100		> 100		> 100 µM						> 100		> 100		> 100		> 100
CCOc1ccc2cc(-c3nn(CC4CCN(C)CC4)c4ncnc(N)c34)ccc2c1			11.1	33.7	11.2	31.4	12.3	30.9 µM	11.8	25.2	17.1 µM	32	18	45.2	1.56	15.9	4.84	24.6	11.6	27.7
